ChEMBL document CHEMBL4507301 (2021)

How the values were obtained:
[1] = target: 5'-AMP-activated protein kinase catalytic subunit alpha-1 (Homo sapiens) (UniProt Q13131); conditions: Compound concentration 1000.0 nM
[2] = target: Cyclin-dependent kinase 5 (Homo sapiens) (UniProt Q00535); conditions: Compound concentration 1000.0 nM
[3] = target: cAMP-dependent protein kinase catalytic subunit beta (Homo sapiens) (UniProt P22694); conditions: Compound concentration 1000.0 nM
[4] = system: Receptor-type tyrosine-protein kinase FLT3 (Homo sapiens), P36888 [D835H]; conditions: Compound concentration 1000.0 nM
[5] = target: Casein kinase I isoform epsilon (Homo sapiens) (UniProt P49674); conditions: Compound concentration 1000.0 nM
[6] = target: Protein kinase C epsilon type (Homo sapiens) (UniProt Q02156); conditions: Compound concentration 1000.0 nM
[7] = target: Dual serine/threonine and tyrosine protein kinase (Homo sapiens) (UniProt Q6XUX3); conditions: Compound concentration 1000.0 nM
[8] = system: Epidermal growth factor receptor (Homo sapiens), P00533 [UNDEFINED MUTATION]; conditions: Compound concentration 1000.0 nM
[9] = target: Serine/threonine-protein kinase PLK4 (Homo sapiens) (UniProt O00444); conditions: Compound concentration 1000.0 nM
[10] = target: RAC-beta serine/threonine-protein kinase (Homo sapiens) (UniProt P31751); conditions: Compound concentration 1000.0 nM
[11] = target: Serine/threonine-protein kinase Nek5 (Homo sapiens) (UniProt Q6P3R8); conditions: Compound concentration 1000.0 nM
[12] = target: Serine/threonine-protein kinase PRP4 homolog (Homo sapiens) (UniProt Q13523); conditions: Compound concentration 1000.0 nM
[13] = target: Histamine H2 receptor (Homo sapiens) (UniProt P25021); conditions: Compound concentration 10.0 uM
[14] = system: Tyrosine-protein kinase ABL1 (Homo sapiens), P00519 [F317L]; conditions: Compound concentration 1000.0 nM
[15] = system: Receptor-type tyrosine-protein kinase FLT3 (Homo sapiens), P36888 [K663Q]; conditions: Compound concentration 1000.0 nM
[16] = target: NUAK family SNF1-like kinase 1 (Homo sapiens) (UniProt O60285); conditions: Compound concentration 1000.0 nM
[17] = target: Insulin receptor-related protein (Homo sapiens) (UniProt P14616); conditions: Compound concentration 1000.0 nM
[18] = target: Mitogen-activated protein kinase 1 (Homo sapiens) (UniProt P28482); conditions: Compound concentration 1000.0 nM
[19] = target: Sodium-dependent serotonin transporter (Homo sapiens) (UniProt P31645); conditions: Compound concentration 10.0 uM
[20] = target: Mitogen-activated protein kinase 10 (Homo sapiens) (UniProt P53779); conditions: Compound concentration 1000.0 nM
[21] = system: Phosphatidylinositol 4,5-bisphosphate 3-kinase catalytic subunit alpha isoform (Homo sapiens), P42336 [E542K]; conditions: Compound concentration 1000.0 nM
[22] = target: G protein-coupled receptor kinase 3 (Homo sapiens) (UniProt P35626); conditions: Compound concentration 1000.0 nM
[23] = system: Phosphatidylinositol 4,5-bisphosphate 3-kinase catalytic subunit alpha isoform (Homo sapiens), P42336 [C420R]; conditions: Compound concentration 1000.0 nM
[24] = target: Protein-tyrosine kinase 6 (Homo sapiens) (UniProt Q13882); conditions: Compound concentration 1000.0 nM
[25] = system: Phosphatidylinositol 4,5-bisphosphate 3-kinase catalytic subunit alpha isoform (Homo sapiens), P42336 [H1047Y]; conditions: Compound concentration 1000.0 nM
[26] = system: Mast/stem cell growth factor receptor Kit (Homo sapiens), P10721 [V559D,V654A]; conditions: Compound concentration 1000.0 nM
[27] = system: Hepatocyte growth factor receptor (Homo sapiens), P08581 [Y1235D]; conditions: Compound concentration 1000.0 nM
[28] = target: STE20/SPS1-related proline-alanine-rich protein kinase (Homo sapiens) (UniProt Q9UEW8); conditions: Compound concentration 1000.0 nM
[29] = target: Phosphorylase b kinase gamma catalytic chain, skeletal muscle/heart isoform (Homo sapiens) (UniProt Q16816); conditions: Compound concentration 1000.0 nM
[30] = target: Mitogen-activated protein kinase 9 (Homo sapiens) (UniProt P45984); conditions: Compound concentration 1000.0 nM
[31] = target: MAP kinase-interacting serine/threonine-protein kinase 1 (Homo sapiens) (UniProt Q9BUB5); conditions: Compound concentration 1000.0 nM
[32] = target: Beta-2 adrenergic receptor (Homo sapiens) (UniProt P07550); conditions: Compound concentration 10.0 uM
[33] = target: Rho-associated protein kinase 1 (Homo sapiens) (UniProt Q13464); conditions: Compound concentration 1000.0 nM
[34] = target: D(2) dopamine receptor (Homo sapiens) (UniProt P14416); conditions: Compound concentration 10.0 uM
[35] = target: Ephrin type-A receptor 7 (Homo sapiens) (UniProt Q15375); conditions: Compound concentration 1000.0 nM
[36] = target: Serine/threonine-protein kinase SIK2 (Homo sapiens) (UniProt Q9H0K1); conditions: Compound concentration 1000.0 nM
[37] = target: Tyrosine-protein kinase Fyn (Homo sapiens) (UniProt P06241); conditions: Compound concentration 1000.0 nM
[38] = target: Calcium/calmodulin-dependent protein kinase type II subunit gamma (Homo sapiens) (UniProt Q13555); conditions: Compound concentration 1000.0 nM
[39] = target: Phosphatidylinositol 3-kinase C2 domain-containing subunit gamma (Homo sapiens) (UniProt O75747); conditions: Compound concentration 1000.0 nM
[40] = target: Serine/threonine-protein kinase Nek10 (Homo sapiens) (UniProt Q6ZWH5); conditions: Compound concentration 1000.0 nM
[41] = target: BDNF/NT-3 growth factors receptor (Homo sapiens) (UniProt Q16620); conditions: Compound concentration 1000.0 nM
[42] = target: Cyclin-dependent kinase 14 (Homo sapiens) (UniProt O94921); conditions: Compound concentration 1000.0 nM
[43] = target: Myosin light chain kinase family member 4 (Homo sapiens) (UniProt Q86YV6); conditions: Compound concentration 1000.0 nM
[44] = system: ALK tyrosine kinase receptor (Homo sapiens), Q9UM73 [L1196M]; conditions: Compound concentration 1000.0 nM

Serine/threonine-protein kinase PRP4 homolog (Homo sapiens), sequence (Q13523 whole entry): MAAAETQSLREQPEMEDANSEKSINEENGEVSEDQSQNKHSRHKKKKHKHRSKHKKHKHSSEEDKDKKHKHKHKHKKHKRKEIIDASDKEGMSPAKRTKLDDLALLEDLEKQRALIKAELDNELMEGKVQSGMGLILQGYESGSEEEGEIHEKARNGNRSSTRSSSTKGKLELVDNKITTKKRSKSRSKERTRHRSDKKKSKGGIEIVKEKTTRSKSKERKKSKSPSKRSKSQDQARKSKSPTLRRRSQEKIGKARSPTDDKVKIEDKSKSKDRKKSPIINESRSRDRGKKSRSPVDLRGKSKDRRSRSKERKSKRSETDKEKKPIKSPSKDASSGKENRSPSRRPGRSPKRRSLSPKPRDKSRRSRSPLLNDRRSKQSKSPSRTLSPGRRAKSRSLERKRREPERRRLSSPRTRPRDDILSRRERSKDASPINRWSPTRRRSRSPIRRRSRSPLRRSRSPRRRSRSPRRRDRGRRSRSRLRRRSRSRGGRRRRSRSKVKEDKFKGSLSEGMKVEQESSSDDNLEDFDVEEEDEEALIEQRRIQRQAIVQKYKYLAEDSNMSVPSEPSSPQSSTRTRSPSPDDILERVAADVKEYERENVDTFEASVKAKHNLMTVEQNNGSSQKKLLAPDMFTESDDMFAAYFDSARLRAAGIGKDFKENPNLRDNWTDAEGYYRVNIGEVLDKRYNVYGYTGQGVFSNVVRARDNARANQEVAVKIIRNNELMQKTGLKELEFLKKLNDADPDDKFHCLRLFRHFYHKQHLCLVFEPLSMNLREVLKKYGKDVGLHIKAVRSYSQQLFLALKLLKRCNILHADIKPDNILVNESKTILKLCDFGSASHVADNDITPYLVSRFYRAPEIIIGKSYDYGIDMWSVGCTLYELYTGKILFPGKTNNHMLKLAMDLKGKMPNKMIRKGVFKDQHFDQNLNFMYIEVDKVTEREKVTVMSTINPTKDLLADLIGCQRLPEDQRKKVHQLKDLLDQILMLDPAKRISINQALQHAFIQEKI
Histamine H2 receptor (Homo sapiens), sequence (P25021 whole entry): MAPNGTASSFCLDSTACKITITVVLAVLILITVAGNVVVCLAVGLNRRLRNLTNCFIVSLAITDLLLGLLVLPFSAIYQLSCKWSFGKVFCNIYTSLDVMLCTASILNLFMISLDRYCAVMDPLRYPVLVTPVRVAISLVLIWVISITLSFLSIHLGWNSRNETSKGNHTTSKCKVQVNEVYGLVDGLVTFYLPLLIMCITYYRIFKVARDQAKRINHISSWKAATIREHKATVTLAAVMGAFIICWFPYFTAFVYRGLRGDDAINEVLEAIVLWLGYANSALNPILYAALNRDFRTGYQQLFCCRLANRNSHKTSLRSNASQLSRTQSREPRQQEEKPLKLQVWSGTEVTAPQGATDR
Phosphatidylinositol 4,5-bisphosphate 3-kinase catalytic subunit alpha isoform (Homo sapiens), P42336 [H1047Y], sequence (P42336 whole entry H1047Y, canonical isoform): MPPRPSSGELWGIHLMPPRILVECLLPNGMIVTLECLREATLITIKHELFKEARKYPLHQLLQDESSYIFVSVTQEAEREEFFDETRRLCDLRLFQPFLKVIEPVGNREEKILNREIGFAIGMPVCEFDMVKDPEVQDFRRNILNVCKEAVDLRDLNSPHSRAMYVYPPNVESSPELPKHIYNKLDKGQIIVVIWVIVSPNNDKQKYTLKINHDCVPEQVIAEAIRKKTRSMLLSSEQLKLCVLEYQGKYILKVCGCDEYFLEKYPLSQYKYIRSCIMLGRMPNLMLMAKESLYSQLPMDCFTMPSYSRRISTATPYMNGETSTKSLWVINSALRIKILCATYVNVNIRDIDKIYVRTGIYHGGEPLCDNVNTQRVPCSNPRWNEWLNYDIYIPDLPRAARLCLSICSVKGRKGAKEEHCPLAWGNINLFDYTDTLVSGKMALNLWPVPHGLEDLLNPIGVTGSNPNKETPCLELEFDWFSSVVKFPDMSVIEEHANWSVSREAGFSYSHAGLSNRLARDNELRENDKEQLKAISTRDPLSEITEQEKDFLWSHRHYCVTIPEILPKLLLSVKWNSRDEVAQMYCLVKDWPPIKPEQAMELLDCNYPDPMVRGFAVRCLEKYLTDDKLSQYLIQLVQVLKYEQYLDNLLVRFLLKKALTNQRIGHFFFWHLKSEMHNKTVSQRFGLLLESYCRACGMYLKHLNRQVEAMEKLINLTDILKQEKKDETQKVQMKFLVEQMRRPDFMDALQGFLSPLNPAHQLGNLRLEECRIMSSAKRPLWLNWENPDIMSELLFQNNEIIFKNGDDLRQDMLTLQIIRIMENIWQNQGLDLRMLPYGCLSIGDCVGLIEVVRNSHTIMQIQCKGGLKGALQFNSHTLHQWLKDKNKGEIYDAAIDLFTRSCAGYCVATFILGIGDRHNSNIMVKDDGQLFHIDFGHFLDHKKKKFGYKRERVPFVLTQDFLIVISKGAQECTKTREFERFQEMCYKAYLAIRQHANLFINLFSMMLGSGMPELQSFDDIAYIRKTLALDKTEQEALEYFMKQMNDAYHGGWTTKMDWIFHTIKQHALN
Serine/threonine-protein kinase Nek10 (Homo sapiens), sequence (Q6ZWH5 whole entry): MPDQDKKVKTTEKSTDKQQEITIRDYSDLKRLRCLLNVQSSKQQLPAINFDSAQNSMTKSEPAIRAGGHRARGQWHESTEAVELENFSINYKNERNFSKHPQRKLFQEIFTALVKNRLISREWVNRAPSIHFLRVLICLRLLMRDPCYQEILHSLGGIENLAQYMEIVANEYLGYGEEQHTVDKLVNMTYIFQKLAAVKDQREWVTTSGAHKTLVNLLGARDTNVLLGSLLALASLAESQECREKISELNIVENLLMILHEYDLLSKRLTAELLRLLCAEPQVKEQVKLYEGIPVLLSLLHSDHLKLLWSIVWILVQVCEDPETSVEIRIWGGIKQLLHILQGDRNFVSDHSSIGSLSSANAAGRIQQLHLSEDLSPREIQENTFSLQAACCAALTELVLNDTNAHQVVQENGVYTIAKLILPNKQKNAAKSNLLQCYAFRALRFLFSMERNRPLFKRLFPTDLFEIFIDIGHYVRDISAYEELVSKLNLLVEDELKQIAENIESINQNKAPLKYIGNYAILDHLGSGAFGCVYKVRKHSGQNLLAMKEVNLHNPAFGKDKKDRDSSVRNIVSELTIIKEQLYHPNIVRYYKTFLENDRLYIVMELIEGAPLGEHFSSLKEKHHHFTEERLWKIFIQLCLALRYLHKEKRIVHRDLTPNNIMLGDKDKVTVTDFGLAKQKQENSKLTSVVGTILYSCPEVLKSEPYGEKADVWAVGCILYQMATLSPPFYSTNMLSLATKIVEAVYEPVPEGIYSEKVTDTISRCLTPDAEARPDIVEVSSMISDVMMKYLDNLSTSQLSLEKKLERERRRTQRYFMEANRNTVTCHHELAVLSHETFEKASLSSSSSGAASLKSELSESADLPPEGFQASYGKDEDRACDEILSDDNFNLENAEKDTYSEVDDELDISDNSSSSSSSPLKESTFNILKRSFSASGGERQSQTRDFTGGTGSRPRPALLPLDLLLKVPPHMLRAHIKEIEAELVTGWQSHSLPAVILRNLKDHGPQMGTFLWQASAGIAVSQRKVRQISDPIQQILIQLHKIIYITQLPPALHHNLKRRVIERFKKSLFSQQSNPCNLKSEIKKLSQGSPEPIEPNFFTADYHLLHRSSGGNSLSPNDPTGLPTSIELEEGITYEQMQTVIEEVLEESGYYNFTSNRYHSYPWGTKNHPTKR
Mitogen-activated protein kinase 9 (Homo sapiens), sequence (P45984 whole entry, looked up): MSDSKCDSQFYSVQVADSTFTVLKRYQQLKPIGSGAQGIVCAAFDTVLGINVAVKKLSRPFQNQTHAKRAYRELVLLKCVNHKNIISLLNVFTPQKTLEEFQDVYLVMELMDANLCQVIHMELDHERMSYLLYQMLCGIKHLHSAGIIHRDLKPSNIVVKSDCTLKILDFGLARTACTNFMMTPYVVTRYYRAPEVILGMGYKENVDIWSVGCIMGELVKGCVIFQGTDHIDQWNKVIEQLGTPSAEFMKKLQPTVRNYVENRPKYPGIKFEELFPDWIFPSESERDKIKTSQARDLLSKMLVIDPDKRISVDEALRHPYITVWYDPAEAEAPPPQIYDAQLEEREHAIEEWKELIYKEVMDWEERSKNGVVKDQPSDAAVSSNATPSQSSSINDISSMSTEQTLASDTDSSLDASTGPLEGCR
Cyclin-dependent kinase 5 (Homo sapiens), sequence (Q00535 whole entry, looked up): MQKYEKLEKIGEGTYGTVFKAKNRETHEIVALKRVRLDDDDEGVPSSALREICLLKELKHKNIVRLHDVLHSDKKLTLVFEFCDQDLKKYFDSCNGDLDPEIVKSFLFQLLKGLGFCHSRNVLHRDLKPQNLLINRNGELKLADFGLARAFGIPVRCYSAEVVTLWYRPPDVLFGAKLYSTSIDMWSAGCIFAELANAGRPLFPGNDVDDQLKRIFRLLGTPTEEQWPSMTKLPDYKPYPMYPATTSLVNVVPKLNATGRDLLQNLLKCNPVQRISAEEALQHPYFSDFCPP
Myosin light chain kinase family member 4 (Homo sapiens), sequence (Q86YV6 whole entry): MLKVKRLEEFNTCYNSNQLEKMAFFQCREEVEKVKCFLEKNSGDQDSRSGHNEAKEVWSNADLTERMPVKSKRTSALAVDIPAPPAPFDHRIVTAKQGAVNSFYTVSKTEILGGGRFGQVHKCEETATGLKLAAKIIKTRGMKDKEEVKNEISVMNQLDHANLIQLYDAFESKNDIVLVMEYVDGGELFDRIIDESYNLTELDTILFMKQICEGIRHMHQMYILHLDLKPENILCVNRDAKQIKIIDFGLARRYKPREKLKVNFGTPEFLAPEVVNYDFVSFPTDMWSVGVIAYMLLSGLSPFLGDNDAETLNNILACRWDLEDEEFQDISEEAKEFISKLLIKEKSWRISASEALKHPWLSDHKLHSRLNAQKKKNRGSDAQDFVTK

C[C@@H](c1cccc(C#N)c1)n1cc(Cl)cc(C(N)=O)c1=N [(S)-9s]
residual activity [1]: 100%
residual activity [2]: 92%
residual activity [3]: 100%
residual activity [4]: 81%
residual activity [5]: 100%
residual activity [6]: 89%
residual activity [7]: 87%
residual activity [8]: 100%
residual activity [9]: 100%
residual activity [10]: 93%
residual activity [11]: 100%
residual activity [12]: 100%
inhibition [13]: 8.25%
residual activity [14]: 85%
residual activity [15]: 92%
residual activity [16]: 89%
residual activity [17]: 100%
residual activity [18]: 82%
inhibition [19]: 14.8%
residual activity [20]: 100%
residual activity [21]: 89%
residual activity [22]: 81%
residual activity [23]: 100%
residual activity [24]: 85%
residual activity [25]: 100%
residual activity [26]: 99%
residual activity [27]: 100%
residual activity [28]: 100%
residual activity [29]: 100%
residual activity [30]: 82%
residual activity [31]: 86%
inhibition [32]: 13.8%
residual activity [33]: 71%
inhibition [34]: -3.06%
residual activity [35]: 100%
residual activity [36]: 100%
residual activity [37]: 65%
residual activity [38]: 100%
residual activity [39]: 84%
residual activity [40]: 91%
residual activity [41]: 100%
residual activity [42]: 100%
residual activity [43]: 100%
residual activity [44]: 82%

C[C@H](c1cccc(C#N)c1)n1cc(Cl)cc(C(N)=O)c1=N [(R)-9s]
residual activity [1]: 92%
residual activity [2]: 100%
residual activity [3]: 98%
residual activity [4]: 80%
residual activity [5]: 99%
residual activity [6]: 87%
residual activity [7]: 83%
residual activity [8]: 99%
residual activity [9]: 100%
residual activity [10]: 100%
residual activity [11]: 93%
residual activity [12]: 93%
inhibition [13]: 10.8%
residual activity [14]: 75%
residual activity [15]: 100%
residual activity [16]: 57%
residual activity [17]: 100%
residual activity [18]: 93%
inhibition [19]: 9.99%
residual activity [20]: 100%
residual activity [21]: 77%
residual activity [22]: 76%
residual activity [23]: 100%
residual activity [24]: 95%
residual activity [25]: 95%
residual activity [26]: 96%
residual activity [27]: 100%
residual activity [28]: 100%
residual activity [29]: 100%
residual activity [30]: 96%
residual activity [31]: 63%
inhibition [32]: 18.6%
residual activity [33]: 71%
inhibition [34]: 1.55%
residual activity [35]: 98%
residual activity [36]: 100%
residual activity [37]: 42%
residual activity [38]: 100%
residual activity [39]: 88%
residual activity [40]: 99%
residual activity [41]: 100%
residual activity [42]: 100%
residual activity [43]: 100%
residual activity [44]: 76%
